From patent US10670605B2, “Cysteine reactive probes and uses thereof” (The Scripps Research Institute, priority 2015, dated 2020)

Columns and labels:
Experiment in all cases: Competitive isoTOP-ABPP in situ (fragment-treated cells)
Assay type in all cases: cell-based
[1] = target: cysteines in MDA-MB-231 and Ramos cells (Homo sapiens, UniProt Q15365); details: 200 μM, insitu
[2] = target: T1, cysteines in MDA-MB-231 and Ramos cells (Homo sapiens, UniProt Q96HE7); details: 200 μM, insitu
T1 sequence (Q96HE7 24-468): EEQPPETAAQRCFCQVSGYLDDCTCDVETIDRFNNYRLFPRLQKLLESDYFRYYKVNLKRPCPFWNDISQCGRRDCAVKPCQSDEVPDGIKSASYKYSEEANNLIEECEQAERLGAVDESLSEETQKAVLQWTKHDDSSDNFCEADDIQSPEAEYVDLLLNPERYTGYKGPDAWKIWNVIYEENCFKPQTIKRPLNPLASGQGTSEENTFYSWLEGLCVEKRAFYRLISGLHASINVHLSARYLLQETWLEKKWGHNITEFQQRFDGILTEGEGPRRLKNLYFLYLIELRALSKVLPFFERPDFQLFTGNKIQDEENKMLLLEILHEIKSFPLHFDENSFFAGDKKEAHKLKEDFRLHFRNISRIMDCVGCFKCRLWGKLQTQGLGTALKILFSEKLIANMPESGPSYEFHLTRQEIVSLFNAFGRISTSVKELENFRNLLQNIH

[3] = target: cysteines in MDA-MB-231 and Ramos cells (Homo sapiens, UniProt Q13526); details: 200 μM, insitu
Chain of cysteines in MDA-MB-231 and Ramos cells (Homo sapiens, UniProt Q13526) (Q13526 whole entry): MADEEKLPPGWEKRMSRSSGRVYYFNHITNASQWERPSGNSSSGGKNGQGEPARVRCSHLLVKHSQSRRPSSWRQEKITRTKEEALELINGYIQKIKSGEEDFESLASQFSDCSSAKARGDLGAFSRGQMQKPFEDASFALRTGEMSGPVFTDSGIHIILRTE

[4] = target: T2, cysteines in MDA-MB-231 and Ramos cells (Homo sapiens, UniProt P23919); details: 200 μM, insitu
T2 sequence (P23919 1-212): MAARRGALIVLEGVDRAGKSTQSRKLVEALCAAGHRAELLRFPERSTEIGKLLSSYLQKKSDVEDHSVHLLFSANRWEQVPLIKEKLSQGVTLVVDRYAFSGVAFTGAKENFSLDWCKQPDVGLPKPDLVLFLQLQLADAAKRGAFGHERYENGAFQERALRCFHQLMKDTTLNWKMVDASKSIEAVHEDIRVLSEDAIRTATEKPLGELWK

[5] = target: cysteines in MDA-MB-231 and Ramos cells (Homo sapiens, UniProt O00299); details: 200 μM, insitu
[6] = target: T3, cysteines in MDA-MB-231 and Ramos cells (Homo sapiens, UniProt Q9UKF6); details: 200 μM, insitu
T3 sequence (Q9UKF6 1-684): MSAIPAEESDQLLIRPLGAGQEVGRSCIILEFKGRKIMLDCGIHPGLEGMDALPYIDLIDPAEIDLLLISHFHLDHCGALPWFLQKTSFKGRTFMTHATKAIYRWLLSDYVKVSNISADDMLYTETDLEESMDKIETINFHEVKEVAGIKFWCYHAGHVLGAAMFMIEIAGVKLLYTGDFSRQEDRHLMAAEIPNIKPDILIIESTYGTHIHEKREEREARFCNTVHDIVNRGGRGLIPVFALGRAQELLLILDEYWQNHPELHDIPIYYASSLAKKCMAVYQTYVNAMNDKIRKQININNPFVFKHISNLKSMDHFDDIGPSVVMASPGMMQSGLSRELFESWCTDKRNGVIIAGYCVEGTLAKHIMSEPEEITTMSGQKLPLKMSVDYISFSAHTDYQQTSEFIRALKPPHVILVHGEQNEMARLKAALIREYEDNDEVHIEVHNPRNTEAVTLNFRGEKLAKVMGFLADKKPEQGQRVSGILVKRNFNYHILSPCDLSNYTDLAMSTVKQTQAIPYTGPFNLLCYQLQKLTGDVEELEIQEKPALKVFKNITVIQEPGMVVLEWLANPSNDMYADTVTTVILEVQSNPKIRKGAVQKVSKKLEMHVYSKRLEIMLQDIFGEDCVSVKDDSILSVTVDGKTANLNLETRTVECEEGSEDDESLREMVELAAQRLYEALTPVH

[7] = target: T4, cysteines in MDA-MB-231 and Ramos cells (Homo sapiens, UniProt Q96CM8); details: 200 μM, insitu, 231
T4 sequence (Q96CM8 42-615): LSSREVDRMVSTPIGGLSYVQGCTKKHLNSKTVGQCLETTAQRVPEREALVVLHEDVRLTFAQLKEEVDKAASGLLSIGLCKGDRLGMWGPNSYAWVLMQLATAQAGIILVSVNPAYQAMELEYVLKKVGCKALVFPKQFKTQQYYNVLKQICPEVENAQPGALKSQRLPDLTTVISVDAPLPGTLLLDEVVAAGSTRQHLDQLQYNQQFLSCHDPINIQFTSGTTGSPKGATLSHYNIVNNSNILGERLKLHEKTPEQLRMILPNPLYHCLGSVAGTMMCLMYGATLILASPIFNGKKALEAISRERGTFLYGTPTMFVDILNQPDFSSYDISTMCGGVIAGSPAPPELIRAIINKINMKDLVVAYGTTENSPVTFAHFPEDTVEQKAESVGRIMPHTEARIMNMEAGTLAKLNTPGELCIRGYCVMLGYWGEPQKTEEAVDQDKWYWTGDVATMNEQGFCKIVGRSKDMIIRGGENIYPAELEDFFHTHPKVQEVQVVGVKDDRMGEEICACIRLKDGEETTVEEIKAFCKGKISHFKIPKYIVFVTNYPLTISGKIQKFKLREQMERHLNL

[8] = target: T5, cysteines in MDA-MB-231 and Ramos cells (Homo sapiens, UniProt Q9NYL9); details: 200 μM, insitu
T5 sequence (Q9NYL9 1-352): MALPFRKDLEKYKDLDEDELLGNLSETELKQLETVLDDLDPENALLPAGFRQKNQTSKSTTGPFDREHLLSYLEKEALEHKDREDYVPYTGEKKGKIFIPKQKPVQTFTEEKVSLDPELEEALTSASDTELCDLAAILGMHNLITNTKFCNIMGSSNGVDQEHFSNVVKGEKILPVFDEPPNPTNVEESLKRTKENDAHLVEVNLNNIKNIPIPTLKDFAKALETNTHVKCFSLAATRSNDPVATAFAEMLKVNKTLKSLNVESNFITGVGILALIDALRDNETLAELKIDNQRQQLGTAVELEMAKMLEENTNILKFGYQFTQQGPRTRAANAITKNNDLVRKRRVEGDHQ

Chain of cysteines in MDA-MB-231 and Ramos cells (Homo sapiens, UniProt Q15365) (Q15365 whole entry): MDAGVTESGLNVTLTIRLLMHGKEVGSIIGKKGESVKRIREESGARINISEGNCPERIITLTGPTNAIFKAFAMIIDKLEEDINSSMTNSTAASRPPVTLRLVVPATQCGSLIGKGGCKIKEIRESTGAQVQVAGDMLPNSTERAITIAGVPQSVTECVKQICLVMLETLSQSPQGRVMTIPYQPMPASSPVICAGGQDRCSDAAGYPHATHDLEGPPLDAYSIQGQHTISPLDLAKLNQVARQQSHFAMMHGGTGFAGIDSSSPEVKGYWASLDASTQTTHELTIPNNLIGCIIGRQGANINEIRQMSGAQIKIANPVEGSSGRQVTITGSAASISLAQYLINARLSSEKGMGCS

| isoTOP-ABPP ratio Q15365_C194 [1]; 231 | isoTOP-ABPP ratio Q15365_C194 ([1]; ramos) | isoTOP-ABPP ratio Q96HE7_C241 [2]; 231 | isoTOP-ABPP ratio Q96HE7_C241 ([2]; ramos) | isoTOP-ABPP ratio, cysteine Q96HE7_C37 ([2]; ramos) | isoTOP-ABPP ratio Q13526_C113 [3]; 231 | isoTOP-ABPP ratio Q13526_C113 ([3]; ramos) | isoTOP-ABPP ratio, cysteine P23919_C117 [4]; 231 | isoTOP-ABPP ratio O00299_C24 ([5]; ramos) | isoTOP-ABPP ratio Q9UKF6_C498 ([6]; ramos) | isoTOP-ABPP ratio Q96CM8_C64 [7] | isoTOP-ABPP ratio O00299_C24 [5]; 231 | isoTOP-ABPP ratio Q9NYL9_C132 [8]; 231 | isoTOP-ABPP ratio Q9UKF6_C498 [6]; 231 | isoTOP-ABPP ratio P23919_C163 [4]; 231 | isoTOP-ABPP ratio Q96HE7_C37 [2]; 231 | isoTOP-ABPP ratio P23919_C163 ([4]; ramos) | isoTOP-ABPP ratio Q9NYL9_C132 ([8]; ramos) | isoTOP-ABPP ratio P23919_C117 [4]; 231 | Compound |
| --- | --- | --- | --- | --- | --- | --- | --- | --- | --- | --- | --- | --- | --- | --- | --- | --- | --- | --- | --- |
| 0.7 | 1.6 | 0.7 |  |  | 0.6 | 1.1 |  |  |  | 0.8 | 0.6 | 0.7 |  |  | 0.6 | 1.0 | 0.7 |  | C=CC(=O)N(Cc1cccnc1)c1cc(C(F)(F)F)cc(C(F)(F)F)c1 [compound 31] |
| 15 |  | 1.6 |  |  | 1.0 |  |  |  |  | 1.1 | 1.0 | 2.6 |  | 5.7 | 3.4 |  |  | 4.4 | C=CC(=O)Nc1cc(F)c(N2CCN(C(=O)OC(C)(C)C)CC2)c(F)c1 [compound 38] |
| 1.5 |  | 2.1 |  |  | 10.0 |  |  |  |  | 20.0 |  | 0.9 | 20.0 |  | 20.0 |  |  |  | CC1CCc2ccccc2N1C(=O)CCl (centres unmarked) [compound 45] |
| 0.6 |  | 1.7 |  |  | 1.4 |  |  |  |  |  |  | 0.8 |  |  |  |  |  |  | O=C(CCl)Nc1cccc2ncccc12 [compound 51] |

The next lines start with the molecule.

| Compound | isoTOP-ABPP ratio Q15365_C194 [1]; 231 | isoTOP-ABPP ratio Q15365_C194 ([1]; ramos) | isoTOP-ABPP ratio Q96HE7_C241 [2]; 231 | isoTOP-ABPP ratio Q96HE7_C241 ([2]; ramos) | isoTOP-ABPP ratio, cysteine Q96HE7_C37 ([2]; ramos) | isoTOP-ABPP ratio Q13526_C113 [3]; 231 | isoTOP-ABPP ratio Q13526_C113 ([3]; ramos) | isoTOP-ABPP ratio, cysteine P23919_C117 [4]; 231 | isoTOP-ABPP ratio O00299_C24 ([5]; ramos) | isoTOP-ABPP ratio Q9UKF6_C498 ([6]; ramos) | isoTOP-ABPP ratio Q96CM8_C64 [7] | isoTOP-ABPP ratio O00299_C24 [5]; 231 | isoTOP-ABPP ratio Q9NYL9_C132 [8]; 231 | isoTOP-ABPP ratio Q9UKF6_C498 [6]; 231 | isoTOP-ABPP ratio P23919_C163 [4]; 231 | isoTOP-ABPP ratio Q96HE7_C37 [2]; 231 | isoTOP-ABPP ratio P23919_C163 ([4]; ramos) | isoTOP-ABPP ratio Q9NYL9_C132 ([8]; ramos) | isoTOP-ABPP ratio P23919_C117 [4]; 231 |
| --- | --- | --- | --- | --- | --- | --- | --- | --- | --- | --- | --- | --- | --- | --- | --- | --- | --- | --- | --- |
| O=C(CCl)NCCc1c[nH]c2ccccc12 [compound 13] | 0.9 | 1.4 | 1.5 | 1.3 | 1.4 | 0.9 | 1.0 | 0.6 | 1.8 | 1.4 | 1.4 |  |  |  |  |  |  |  |  |
| O=C(CCl)NC12CC3CC(CC(C3)C1)C2 [compound 21] | 1.1 |  | 1.6 |  |  | 0.7 |  | 0.9 |  |  | 2.0 | 0.7 | 1.4 | 1.4 |  |  |  |  |  |
| CC(C)CCOCCNC(=O)CCl [compound 27] | 0.5 |  | 0.9 |  |  | 0.5 |  |  |  |  | 1.8 | 0.7 | 0.6 | 1.5 | 0.2 |  |  |  |  |
| COc1ccccc1OCCNC(=O)CCl [compound 28] |  |  | 1.1 |  |  | 0.7 |  |  |  |  |  |  | 0.7 |  | 0.4 |  |  |  |  |
